The source of these data is PubChem BioAssay (NCI).

Common to all, as to test: inhibition of tumour cell growth, NCI panel, 48 h
Assay [1] relates to OVCAR-3 ovarian.
The subject of assay [2] is M14 melanoma.
Assay [3] has as its system HCT-116 colon.
Assay [4] relates to ACHN renal.
In assay [5] the test system is HOP-92 NSCLC.
Assay [6] deals with MOLT-4 leukemia.
Assay [7] relates to HT29 colon.
Assay [8] has as its system 786-0 renal.
Assay [9] deals with COLO 205 colon.
In assay [10] the test system is SK-MEL-2 melanoma.
Assay [11] has as its system MDA-N.
The test system of assay [12] is HCC-2998 colon.

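1) Cells in 96-well plates. 2) Compound, 48 h, 5 concentrations. 3) Linear interpolation between surrounding doses. 4) Unreached endpoint = highest concentration. The concentration for full growth arrest is given as TGI.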

As for `CC1Cn2c(nc3ccccc32)NC1=O` (centres undefined), the TGI in [1], in assay [2], in [3], in [4], in assay [5] and in assay [6] was greater than 100 µM in each case. Also, the TGI in assay [7], in [8], in assay [9], in assay [10] and in [11] was greater than 100 µM each time.

As for `Cc1ccc2c(=O)cc(-c3cccs3)[nH]c2n1`, the TGI in [1] is greater than 100 µM; in [12], greater than 83.2 µM; in assay [2], greater than 100 µM; in [3], greater than 100 µM; in assay [4], greater than 100 µM; in [5] it was greater than 100 µM. Besides, the TGI in assay [6] was greater than 100 µM; in [7] it was greater than 70.9 µM; in assay [8], greater than 100 µM; in assay [9], 25.2 µM; in assay [10] it was greater than 82.7 µM; in assay [11], 3.78 µM.

Turning to `CCC1(C(=O)OC(C)(C)C)OC12C(C)CCCC2C` (centres undefined), the TGI in [1] was greater than 100 µM; in assay [12], 45.1 µM; in assay [2], greater than 100 µM; in [3] it was greater than 100 µM; in assay [4], 54.2 µM; in assay [5], 85.9 µM. The TGI is 41.2 µM in assay [6]; greater than 100 µM in assay [7]; greater than 100 µM in assay [8]; 63 µM in assay [9]; greater than 100 µM in assay [10]; greater than 100 µM in assay [11].

In the case of `NCCSc1nc2ccccc2c(=O)n1-c1ccccc1`, the TGI in assay [1] is greater than 100 µM; in assay [12], greater than 100 µM; in [2], greater than 100 µM; in assay [3] it was greater than 100 µM; in assay [4] it was greater than 100 µM; in [5] it was 65.5 µM. For the same molecule, the TGI in [7], in [8], in assay [9], in [10] and in assay [11] was greater than 100 µM in each case.

On to `O=c1[nH]/c(=C/c2ccc(OCc3ccccc3)cn2)c(=O)[nH]/c1=C/c1ccc(O)cc1`, for which the TGI in assay [1] was greater than 76.3 µM; in assay [12], 5.21 µM; in assay [2], 3.78 µM; in assay [3], greater than 69.6 µM; in assay [4], greater than 100 µM; in [5], greater than 77.6 µM. Besides, the TGI in [6] was 1.65 µM; in assay [7], greater than 100 µM; in [8] it was 1.45 µM; in assay [9], 10.3 µM; in assay [10], greater than 46 µM; in assay [11], 0.591 µM.

On to `Cc1ccc(S(=O)(=O)OCC(=O)O)cc1`, for which the TGI in [1], in assay [2], in [3], in [4], in assay [5] and in assay [6] was greater than 100 µM each time. In addition, the TGI in assay [7], in assay [8], in assay [10] and in [11] was greater than 100 µM in each case.

Take `NP(=O)(OCC1=CC(=O)c2ccccc2C1=O)N(CCBr)CCBr` (centres undefined): the TGI was greater than 25.6 µM in assay [1]; 34.3 µM in assay [12]; greater than 45.1 µM in assay [3]; 15.7 µM in assay [4]; 31.5 µM in assay [5]; 10.8 µM in assay [6]. The TGI is 34.9 µM in assay [7]; 28.6 µM in [8]; greater than 21.1 µM in assay [9]; 25.3 µM in assay [10]; 3.66 µM in assay [11].

For `O=C1c2ccccc2-c2nc(-c3cccc([N+](=O)[O-])c3)nnc21`, the TGI in assay [2] was 73.2 µM; in assay [3] it was greater than 100 µM; in [4], 16.7 µM; in [5], greater than 100 µM; in assay [6], greater than 100 µM; in [7], 5.43 µM. The TGI was greater than 100 µM in [8], 12.6 µM in [9], 49.2 µM in [10] and 5.49 µM in [11].

For `CCC1(C)N=C(c2cnccn2)NN1c1ccc(Cl)cc1` (centres undefined), the TGI in [1], in assay [2], in [3], in assay [4], in assay [5] and in assay [6] was greater than 100 µM throughout. Also, the TGI in assay [7], in [8], in assay [9], in [10] and in [11] was greater than 100 µM throughout.

For the molecule `CC(=O)c1ccc2c3c1[C@@H]1O[C@@H]1c1cccc(c1-3)[C@@H]1O[C@H]21`, the TGI in assay [1] is 30.4 µM; in [2] it was 22.3 µM; in [3], 13.9 µM; in [4], 37.4 µM; in assay [5], 29.7 µM; in assay [6], greater than 100 µM. In addition, the TGI is greater than 27.9 µM in assay [7]; 24.9 µM in assay [8]; 28.2 µM in assay [9]; greater than 57.1 µM in assay [10]; 39.9 µM in assay [11].

Regarding `O=c1[nH]nc(Cc2ccc([N+](=O)[O-])cc2)n1CCO`, the TGI in assay [1], in assay [12], in [2], in assay [3], in assay [4] and in [5] was greater than 100 µM each time. Also, the TGI in [7], in [8], in assay [9], in [10] and in [11] was greater than 100 µM each time.

`CCc1ccc2oc(-c3cc(O)c(-c4nc5cc(CC)ccc5o4)cc3O)nc2c1`: the TGI in assay [12], in [2], in assay [3], in assay [4], in assay [5] and in [6] was greater than 100 µM in each case. Further, the TGI in assay [8], in assay [9], in assay [10] and in assay [11] was greater than 100 µM each time.

On to `CCOC(=O)/C=C(\C(=O)OCC)n1cc(C)c(=O)n(Cc2cnnn2CCCCOC(C)=O)c1=O`, for which the TGI in assay [1] amounted to 39.1 µM; in assay [12], 43.9 µM; in assay [2], 86.2 µM; in assay [3] it was 22.7 µM; in [4] it was 4.83 µM; in assay [5], 4.83 µM. The TGI in [6] is greater than 25.6 µM; in [7] it was 21.3 µM; in assay [8] it was 28 µM; in [10], 53 µM; in assay [11], 55.8 µM.

Take `COC(=O)C1=C(C(=O)OC)SC2(S1)C1=C(CCCC1)SC(C(=O)OC)=C2C(=O)OC`: the TGI in assay [1] was determined as 18.9 µM; in assay [12], 28.2 µM; in [2] it was 32.5 µM; in assay [3], 2.92 µM; in assay [4], 18.4 µM; in assay [5] it was 18.3 µM. In addition, the TGI in [6] came out at 11.6 µM; in [7], 11.7 µM; in assay [9], 23.2 µM; in assay [10], 30 µM; in assay [11] it was 15.2 µM.

As to `COC(=O)[C@@H]1CCCN1CCN1CCC[C@H]1C(=O)OC`, the TGI in [1], in assay [2], in assay [3], in assay [4], in [5] and in assay [6] was greater than 100 µM throughout. Further, the TGI in [7], in assay [8], in [9], in [10] and in [11] was greater than 100 µM in each case.

For the molecule `O=C(OCC1OC2OC(c3ccccc3)(n3ccc4c([N+](=O)[O-])ccnc43)OC2C1OC(=O)c1ccccc1)c1ccccc1` (centres undefined), the TGI in assay [1], in [12], in assay [2], in assay [3], in assay [4] and in [5] was greater than 100 µM each time. Also, the TGI in [6], in [7], in [8], in [10] and in assay [11] was greater than 100 µM in each case.

Take `N#Cc1c(-c2ccccc2)nc(-c2ccccc2)sc1=S`: the TGI in assay [1], in assay [12], in assay [2], in assay [3], in [4] and in [5] was greater than 100 µM each time. Further, the TGI in assay [7], in assay [8], in [9], in [10] and in [11] was greater than 100 µM in each case.

As for `Cc1cn(C2CC(n3cc(Cn4cc(Br)c(=O)[nH]c4=O)nn3)C(CO)O2)c(=O)[nH]c1=O` (centres undefined), the TGI in assay [1], in assay [12], in assay [2], in assay [3], in assay [4] and in assay [5] was greater than 100 µM throughout. Further, the TGI in assay [6], in [8], in [9], in assay [10] and in assay [11] was greater than 100 µM in each case.

For the molecule `Cc1cc(C)cc(Nc2cc(=O)[nH]c(=O)[nH]2)c1`, the TGI in assay [1], in assay [12], in assay [2], in assay [3], in assay [4] and in assay [5] was greater than 100 µM each time. Also, the TGI in assay [6], in [7], in [8], in assay [9] and in assay [11] was greater than 100 µM in each case.
